Measured values: US20240287070A1, “FUSED HETEROCYCLIC DERIVATIVES” (Janssen Sciences Ireland Unlimited Company, priority 2021, published 2024)

Legend:
[1] = system: HBV (HepG2.117 cell line, inducibly HBV producing); test: Anti-HBV activity, intracellular HBV DNA by real-time PCR in HepG2.117 cell line; format: cell-based, hepatitis B virus; details: HepG2.117 cells, 3 days of treatment
Method: The anti HBV activity was measured using the HepG2.117 cell line, a stable, inducibly HBV producing cell line, which replicates HBV in the absence of doxycycline (Tet-off system). The HepG2 cell line is available from ATCCR under number HB-8065. Transfection of the HepG2 cell line can be as described in Sun and Nassal 2006 Journal of Hepatology 45 (2006) 636-645 “Stable HepG2- and Huh7-based human hepatoma cell lines for efficient regulated expression of infectious hepatitis B virus”.
For the antiviral assay, HBV replication was induced, followed by a treatment with serially diluted compound in 96-well plates. After 3 days of treatment, the antiviral activity was determined by quantification of intracellular HBV DNA using real-time PCR and an HBV specific primer set and probe.

[2] = Cytotoxicity, ATPlite Luminescence Assay; format: cell-based, human; details: human, HepG2 or HepG2.117 cells, 3-days incubation unless marked with *
Method: Cytotoxicity of the compounds was tested using HepG2 or HepG2.117 cells, incubated for 3 or 4 days in the presence of compounds. The viability of the cells was assessed using the PERKIN ELMER ATPlite Luminescence Assay System.”

[3] = Human liver microsome stability; format: in vitro ADME; details: 1 μM compound, NADPH 1 mM, 37° C., 0-60 min; for half-life at 1 μM: human, pooled human liver microsomes, pH 7.4, pooled human liver microsomes 0.5 mg/mL, read-out: HLM Metabolism t1/2; for HLM Metabolism t1/2: pooled human liver microsomes 0.5 mg/mL
Method: Human Liver Microsome Stability t½ (Min) of Compounds of Formula (I) […] All incubations are performed singularly for each compound. NADPH was added to initiate the reaction with the final concentration of 1 mM and the final incubation volume of 400 μL. At 6 time points (0, 5, 10, 20, 40 and 60 min) reactions were stopped by the removal of 50 μL of the incubation mixture into plates containing acetonitrile at a of 1:3 (v:v). The plates were centrifuged at 3000 rpm for 10 min at 4° C. to precipitate the protein. Following protein precipitation, the sample supernatants were combined in cassettes of up to 8 compounds. The internal standard was added (1:1 supernatant to internal standard solution) and samples were analyzed using standard LC-MS conditions. From a plot of ln peak area ratio (compound peak area/internal standard peak area) against time, the gradient of the line is determined. Subsequently, half-life is calculated using the equations below: Elimination rate constant (k)=(−gradient) […]

[4] = Hepatitis B virus, HepG2.117, 72 h

Row | SMILES | EC50 [1, 4] [µM] | CC50 at 3 days [2] [µM] | half-life at 1 μM [3] [h] | EC50 [1] [µM] | HLM Metabolism t1/2 [3] [h]
1 | CN=[S@](C)(=O)c1ccc([C@H](C)N2C[C@@H](C)n3nc4c(c3C2=O)CN(C(=O)c2ccc(Cl)c(Cl)c2)[C@H](C)C4)cn1 (relative stereo) [Compound 29C, (3R,7R)-2-(3,4-dichlorobenzoyl)-9-((S*)-1-(6-((R*)—N,S-dimethylsulfonimidoyl)pyridin-3-yl)ethyl)-3,7-dimethyl-1,2,3,4,8,9-hexahydropyrido[4′,3′:3,4]pyrazolo[1,5-a]pyrazin-10(7H)-one] | 0.051 | > 50 | 1.43 |  | 
2 | CN=[S@@](C)(=O)c1ccc([C@H](C)N2C[C@@H](C)n3nc4c(c3C2=O)CN(C(=O)c2ccc(Cl)c(Cl)c2)[C@H](C)C4)cn1 (relative stereo) [Compound 29D, (3R,7R)-2-(3,4-dichlorobenzoyl)-9-((S*)-1-(6-((S*)—N,S-dimethylsulfonimidoyl)pyridin-3-yl)ethyl)-3,7-dimethyl-1,2,3,4,8,9-hexahydropyrido[4′,3′:3,4]pyrazolo[1,5-a]pyrazin-10(7H)-one] | 0.059 | > 50 | 1.25 |  | 
3 | CC(c1ccc(C(C)(C)O)nc1)N1C[C@@H](C)n2nc3c(c2C1=O)CN(C(=O)c1ccc(Cl)c(Cl)c1)[C@H](C)C3 (single isomer, unassigned) [Compound 2A, (3R,7R)-2-(3,4-dichlorobenzoyl)-9-((R*)-1-(6-(2-hydroxypropan-2-yl)pyridin-3-yl)ethyl)-3,7-dimethyl-1,2,3,4,8,9-hexahydropyrido[4′,3′:3,4]pyrazolo[1,5-a]pyrazin-10(7H)-one] |  | > 50 | > 3 | 0.099 | 
4 | Cc1ncc(C(C)N2C[C@@H](C)n3nc4c(c3C2=O)CN(C(=O)c2ccc(Cl)c(Cl)c2)[C@H](C)C4)cn1 (single isomer, unassigned) [Compound 4A, (3R,7R)-2-(3,4-dichlorobenzoyl)-3,7-dimethyl-9-((R*)-1-(2-methylpyrimidin-5-yl)ethyl)-1,2,3,4,8,9-hexahydropyrido[4′,3′:3,4]pyrazolo[1,5-a]pyrazin-10(7H)-one] |  | > 50 | > 3 | 0.28 | 
5 | CC(c1ccc(-n2cncn2)nc1)N1C[C@@H](C)n2nc3c(c2C1=O)CN(C(=O)c1ccc(Cl)c(Cl)c1)[C@H](C)C3 (single isomer, unassigned) [Compound 5A, (3R,7R)-9-((R*)-1-(6-(1H-1,2,4-Triazol-1-yl)pyridin-3-yl)ethyl)-2-(3,4-dichlorobenzoyl)-3,7-dimethyl-1,2,3,4,8,9-hexahydropyrido[4′,3′:3,4]pyrazolo[1,5-a]pyrazin-10(7H)-one] |  | > 50 | > 3 | 0.087 | 
6 | Cc1ccc(C(C)N2C[C@@H](C)n3nc4c(c3C2=O)CN(C(=O)c2ccc(Cl)c(Cl)c2)[C@H](C)C4)nn1 (single isomer, unassigned) [Compound 6A, (3R,7R)-2-(3,4-dichlorobenzoyl)-3,7-dimethyl-9-((R*)-1-(6-methylpyridazin-3-yl)ethyl)-1,2,3,4,8,9-hexahydropyrido[4′,3′:3,4]pyrazolo[1,5-a]pyrazin-10(7H)-one] | 0.086 | > 50 |  |  | 1.18
7 | CC(c1ccc(C(C)(C)O)cc1)N1C[C@@H](C)n2nc3c(c2C1=O)CN(C(=O)c1ccc(Cl)c(Cl)c1)[C@H](C)C3 (single isomer, unassigned) [Compound 8A, (3R,7R)-2-(3,4-dichlorobenzoyl)-9-((R*)-1-(4-(2-hydroxypropan-2-yl)phenyl)ethyl)-3,7-dimethyl-1,2,3,4,8,9-hexahydropyrido[4′,3′:3,4]pyrazolo[1,5-a]pyrazin-10(7H)-one] |  | 20.1 | > 3 | 0.024 | 
8 | CC(c1ccc(N2CCCC2=O)cc1)N1C[C@@H](C)n2nc3c(c2C1=O)CN(C(=O)c1ccc(Cl)c(C#N)c1)[C@H](C)C3 (single isomer, unassigned) [Compound 9A, 2-Chloro-5-((3R,7R)-3,7-Dimethyl-10-oxo-9-((R*)-1-(4-(2-oxopyrrolidin-1-yl)phenyl)ethyl)-1,2,3,4,7,8,9,10-octahydropyrido[4′,3′:3,4]pyrazolo[1,5-a]pyrazine-2-carbonyl)benzonitrile] | 0.022 | > 50 |  |  | 0.84
9 | CC(c1cnc(C(F)(F)F)cn1)N1C[C@@H](C)n2nc3c(c2C1=O)CN(C(=O)c1ccc(Cl)c(C#N)c1)[C@H](C)C3 (single isomer, unassigned) [Compound 10B, 2-Chloro-5-((3R,7R)-3,7-dimethyl-10-oxo-9-((S*)-1-(5-(trifluoromethyl)pyrazin-2-yl)ethyl)-1,2,3,4,7,8,9,10-octahydropyrido[4′,3′:3,4]pyrazolo[1,5-a]pyrazine-2-carbonyl)benzonitrile] | 0.087 | > 50 | > 3 |  | 
10 | CC(c1ccc(-n2cncn2)cc1)N1C[C@@H](C)n2nc3c(c2C1=O)CN(C(=O)c1ccc(Cl)c(C#N)c1)[C@H](C)C3 (single isomer, unassigned) [Compound 11A, 5-((3R,7R)-9-((R*)-1-(4-(1H-1,2,4-Triazol-1-yl)phenyl)ethyl)-3,7-dimethyl-10-oxo-1,2,3,4,7,8,9,10-octahydropyrido[4′,3′:3,4]pyrazolo[1,5-a]pyrazine-2-carbonyl)-2-chlorobenzonitrile] | 0.039 | > 50 | > 3 |  | 
11 | CC(c1ccc(C(F)(F)F)nc1)N1C[C@@H](C)n2nc3c(c2C1=O)CN(C(=O)c1ccc(Cl)c(C#N)c1)[C@H](C)C3 (single isomer, unassigned) [Compound 12A, 2-Chloro-5-((3R,7R)-3,7-dimethyl-10-oxo-9-((R*)-1-(6-(trifluoromethyl)pyridin-3-yl)ethyl)-1,2,3,4,7,8,9,10-octahydropyrido[4′,3′:3,4]pyrazolo[1,5-a]pyrazine-2-carbonyl)benzonitrile] |  | > 50 | > 3 | 0.6 | 
12 | CNC(=O)C1(Oc2ccc(C(C)N3C[C@@H](C)n4nc5c(c4C3=O)CN(C(=O)c3ccc(Cl)c(C#N)c3)[C@H](C)C5)cc2)CC1 (single isomer, unassigned) [Compound 13A, 1-(4-((R*)-1-((3R,7R)-2-(4-chloro-3-cyanobenzoyl)-3,7-dimethyl-10-oxo-1,2,3,4,7,8-hexahydropyrido[4′,3′:3,4]pyrazolo[1,5-a]pyrazin-9(10H)-yl)ethyl)phenoxy)-N-methylcyclopropanecarboxamide] |  | > 50 | 1.88 | 0.037 | 
13 | CC(c1ccc(C2(O)CC2)cc1)N1C[C@@H](C)n2nc3c(c2C1=O)CN(C(=O)c1ccc(Cl)c(C#N)c1)[C@H](C)C3 (single isomer, unassigned) [Compound 14A, 2-Chloro-5-((3R,7R)-9-((R*)-1-(4-(1-hydroxycyclopropyl)phenyl)ethyl)-3,7-dimethyl-10-oxo-1,2,3,4,7,8,9,10-octahydropyrido[4′,3′:3,4]pyrazolo[1,5-a]pyrazine-2-carbonyl)benzonitrile] | 0.012 | > 50 | 1.37 |  | 
14 | CC(c1ccc(S(C)(=O)=O)cc1)N1C[C@@H](C)n2nc3c(c2C1=O)CN(C(=O)c1ccc(Cl)c(Cl)c1)[C@H](C)C3 (single isomer, unassigned) [Compound 15A, (3R,7R)-2-(3,4-dichlorobenzoyl)-3,7-dimethyl-9-((R*)-1-(4-(methylsulfonyl)phenyl)ethyl)-1,2,3,4,8,9-hexahydropyrido[4′,3′:3,4]pyrazolo[1,5-a]pyrazin-10(7H)-one] |  | > 50 | > 3 | 0.063 | 
15 | CC(c1ccc(S(N)(=O)=O)cc1)N1C[C@@H](C)n2nc3c(c2C1=O)CN(C(=O)c1ccc(Cl)c(Cl)c1)[C@H](C)C3 (single isomer, unassigned) [Compound 16A, 4-((R*)-1-((3R,7R)-2-(3,4-dichlorobenzoyl)-3,7-dimethyl-10-oxo-1,2,3,4,7,8-hexahydropyrido[4′,3′:3,4]pyrazolo[1,5-a]pyrazin-9(10H)-yl)ethyl)benzenesulfonamide] | 0.061 | > 50 | > 3 |  | 
